Reference: patent publication US5686486A, “4-hydroxy-benzopyran-2-ones and 4-hydroxy-cycloalkyl[b]pyran-2-ones useful to treat retroviral infections” (priority 1995, dated 1997)
Several values for one entry are separate records, joined by “and”; a condition that tells them apart may be missing. Equal values may be shown once. Read-outs that look alike come from different tables or passages of the source.

Assays:
[1] = target: T1, HIV-1 protease (Human immunodeficiency virus type 1 group M subtype B, UniProt P04585); assay: biochemical; settings: read-out: HIV-1 FITC KI
Method: Determination of Ki values utilizes the same materials and equipment employed for percent inhibition studies. Two-fold serial dilutions are made for a given inhibitor from 2, 3 or 4 starting concentrations with a total of 24, 36 or 48 individual inhibitor concentrations. These dilutions are performed utilizing the BioMek robotics system. The assay consists of 10 μL of 40 nM HIV-1 protease, 10 μL of the various inhibitor concentrations, and 20 μL of 200 μM substrate (40 μL total). The reaction is allowed to proceed for 90 min at room temperature, terminated with 40 μL of avidin beads and processed (supra vide). An inhibitor with a known Ki is run in parallel to verify the validity of the assay. The data is processed utilizing a computer program employing a nonlinear least square analysis of the data to generate the Ki values.

[2] = target: T1, HIV-1 protease; assay: biochemical
In short: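 Percent inhibition derived from fluorescent cleavage product separated by filtration after streptavidin-bead capture of intact biotin/FITC substrate. Reaction: enzyme (10 μl, 0.1 μM stock) with substrate (20 μl, 0.2 μM stock) and compound, 1 h at room temperature in dark, pH 5.5 acetate buffer with 1.0 M NaCl and 0.05% NP-40.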

[3] = dose 3.300 uM, read-out: HIV-1 Protease % Inhib
[4] = dose 10.000 uM, read-out: HIV-1 Protease % Inhib
[5] = dose 30.000 uM, read-out: HIV-1 Protease % Inhib
[6] = dose 1.100 uM, read-out: HIV-1 Protease % Inhib

| Structure (SMILES) | Ki [1] | inhibition at 3.3 µM [2, 3] | inhibition at 10 µM [2, 4] | inhibition at 30 µM [2, 5] | further results |
| --- | --- | --- | --- | --- | --- |
| O=c1oc2c(c(O)c1C(c1ccccc1)C1CC1)CCCCC2 (single isomer, unassigned) [Example 230, (R or S)-3-(Cyclopropylphenylmethyl)-6,7,8,9-tetrahydro-4-hydroxy-cyclohepta[b]pyran-2(5H)-one] | 264 nM and 280 nM |  |  |  |  |
| O=c1oc2c(c(O)c1C(c1ccccc1)C1CC1)CCCCC2 (single isomer, unassigned) [Example 231, (R or S)-3-(Cyclopropylphenylmethyl)-6,7,8,9-tetrahydro-4-hydroxy-cyclohepta[b]pyran-2(5H)-one] | 109 nM and 126 nM |  |  |  |  |
| CCCC1CCCCCc2c1oc(=O)c([C@@H](c1ccccc1)C1CC1)c2O (single isomer, unassigned) [Example 233, 3-(R)-(Cyclopropylphenylmethyl)4-hydroxy-10-(R or S)-propyl-5,6,7,8,9,10-hexahydro-cycloocta[b]pyran-2-one] | 147 nM and 180 nM and 302 nM |  |  |  |  |
| CCCC1CCCCCc2c1oc(=O)c([C@@H](c1ccccc1)C1CC1)c2O (single isomer, unassigned) [Example 234, 3-(R)-(Cyclopropylphenylmethyl)4-hydroxy-10-(R or S)-propyl-5,6,7,8,9,10-hexahydro-cycloocta[b]pyran-2-one] | 12.8 nM and 13 nM and 18.8 nM |  |  |  |  |
| CCCC1CCCCCc2c1oc(=O)c([C@H](c1ccccc1)C1CC1)c2O (single isomer, unassigned) [Example 236, 3-(S)-(Cyclopropylphenylmethyl)-4-hydroxy-10-(R or S)-propyl-5,6,7,8,9,10-hexahydro-cycloocta[b]pyran-2-one] | 10 nM and 8 nM |  |  |  |  |
| CCCC1CCCCCc2c1oc(=O)c([C@H](c1ccccc1)C1CC1)c2O (single isomer, unassigned) [Example 237, 3-(S)-(Cyclopropylphenylmethyl)-4-hydroxy-10-(R or S)-propyl-5,6,7,8,9,10-hexahydro-cycloocta[b]pyran-2-one] | 60 nM and 117 nM |  |  |  |  |
| O=c1oc2c(c(O)c1[C@@H](c1ccccc1)C1CC1)CCCCCC2 [Example 228] | 34.8 nM |  |  |  |  |
| O=c1oc2c(c(O)c1[C@H](c1cccc(NS(=O)(=O)c3ccc(Cl)cc3)c1)C1CC1)CCCCCC2 [Example 250, (-)-4-Chloro-N-[3-[cyclopropyl(5,6,7,8,9,10-hexahydro-4-hydroxy-2-oxo-2H-cycloocta[b]pyran-3-yl)methyl]phenyl]-benzenesulfonamide] | 1.23 nM |  |  |  |  |
| O=c1oc2c(c(O)c1[C@@H](c1cccc(NS(=O)(=O)c3ccc(Cl)cc3)c1)C1CC1)CCCCCC2 [Example 251, (+)-4-Chloro-N-[3-[cyclopropyl(5,6,7,8,9,10-hexahydro-4-hydroxy-2-oxo-2H-cycloocta[b]pyran-3-yl)methyl]phenyl]-benzenesulfonamide] | 1.25 nM |  |  |  |  |
| N#Cc1ccc(S(=O)(=O)Nc2cccc([C@@H](c3c(O)c4c(oc3=O)CCCCCC4)C3CC3)c2)cc1 [Example 255, (-)-4-Cyano-N-[3-[cyclopropyl(5,6,7,8,9, 10-hexahydro-4-hydroxy-2-oxo-2H-cycloocta[b]pyran-3-yl)methyl]phenyl]-benzenesulfonamide] | 0.62 nM |  |  |  |  |
| O=c1oc2c(c(O)c1[C@H](c1cccc(NS(=O)(=O)/C=C/c3ccccc3)c1)C1CC1)CCCCCC2 [Example 257, (-)-N-[3-[Cyclopropyl(5,6,7,8,9,10-hexahydro4-hydroxy-2-oxo-2H cycloocta[b]pyran-3-yl)methyl]phenyl]-2-phenyl-[(E)]-ethenesulfonamide] | 3 nM |  |  |  |  |
| O=c1oc2c(c(O)c1[C@H](c1cccc(NS(=O)(=O)c3ccccc3)c1)C1CC1)CCCCCC2 [Example 258, (-)-N-[3-[Cyclopropyl(5,6,7,8,9,10-hexahydro4-hydroxy-2-oxo-2H-cycloocta[b]pyran-3-yl)methyl]phenyl]-benzenesulfonamide] | 7.6 nM |  |  |  |  |
| N#Cc1ccc(S(=O)(=O)Nc2cccc([C@H](c3c(O)c4c(oc3=O)CCCCCC4)C3CC3)c2)cc1 [Example 259, (+)4-Cyano-N-[3-[cyclopropyl(5,6,7,8,9,10-hexahydro4-hydroxy-2-oxo-2H-cycloocta[b]pyran-3-yl)methyl]phenyl]-benzenesulfonamide] | 0.71 nM |  |  |  |  |
| O=c1oc2c(c(O)c1[C@@H](c1cccc(NS(=O)(=O)/C=C/c3ccccc3)c1)C1CC1)CCCCCC2 [Example 261, (+)-N-[3-[Cyclopropyl(5,6,7,8,9,10-hexahydro-4-hydroxy-2-oxo-2H-cycloocta[b]pyran-3-yl)methyl]phenyl]-2-phenyl-[(E)]-ethenesulfonamide] | 3.1 nM |  |  |  |  |
| O=c1oc2c(c(O)c1[C@@H](c1cccc(NS(=O)(=O)c3ccccc3)c1)C1CC1)CCCCCC2 [Example 401, N-[3-[Cyclopropyl(5,6,7,8,9,10-hexahydro-4-hydroxy-2-oxo-2H-cycloocta[b]pyran-3-yl)methyl]phenyl]-(R)-benzenesulfonamide] | 2.3 nM |  |  |  |  |
| N#Cc1ccc(S(=O)(=O)Nc2ccc(C(c3c(O)c4c(oc3=O)CCCCCC4)C3CC3)cc2)cc1 (stereo not shown) [Example 472, Benzenesulfonamide, 4-cyano-N-[4-[cyclopropyl (5,6,7,8,9,10-hexahydro-4-hydroxy-2-oxo-2H-cycloocta [b]pyran-3-yl)methyl]phenyl]-] |  | 15.5% | 82.2% | 110% |  |
| O=c1oc2c(c(O)c1C(c1ccc(NS(=O)(=O)c3ccc(Cl)cc3)cc1)C1CC1)CCCCCC2 (stereo not shown) [Example 473, Benzenesulfonamide, 4-chloro-N-[4-[cyclopropyl(5,6,7,8,9,10-hexahydro-4-hydroxy-2-oxo-2H-cycloocta[b]pyran-3-yl)methyl]phenyl]-] |  | 14.4% | 73.6% | 86.8% |  |
| O=c1oc2c(c(O)c1C(c1ccc(NS(=O)(=O)c3ccc(F)cc3)cc1)C1CC1)CCCCCC2 (stereo not shown) [Example 474, Benzenesulfonamide, 4-fluoro-N-[4-[cycloptopyl(5,6,7,8,9,10-hexahydro-4-hydroxy-2-oxo-2H-cycloocta[b]pyran-3-yl)methyl]phenyl]-] |  | 11.4% | 40.4% | 57.2% |  |
| O=c1oc2c(c(O)c1C(c1ccc(NS(=O)(=O)c3cccc([N+](=O)[O-])c3)cc1)C1CC1)CCCCCC2 (stereo not shown) [Example 475, Benzenesulfonamide, 3-nitro-N-[4-[cyclopropyl (5,6,7,8,9,10-hexahydro-4-hydroxy-2-oxo-2H-cycloocta[b]pyran-3-yl)methyl]phenyl]-] |  | 84.1% | 103% | 110% | inhibition at 0.37 µM ([2]; dose 0.370 uM, read-out: HIV-1 Protease % Inhib): 11.8%; inhibition at 1.1 µM [2, 6]: 27.9% |
| Cn1cnc(S(=O)(=O)Nc2ccc(C(c3c(O)c4c(oc3=O)CCCCCC4)C3CC3)cc2)c1 (stereo not shown) [Example 476, N-[4-[Cyclopropyl (5,6,7,8,9,10-hexahydro-4-hydroxy-2-oxo-2H-cycloocta[b]pyran-3-yl)methyl]phenyl]-1-methyl-1H-imidazole-4-sulfonamide] |  | 53.1% | 83% | 83.1% | inhibition at 1.1 µM [2, 6]: 19.5% |
| CC(C)(C)OC(=O)NCc1ccc(C(c2c(O)c3c(oc2=O)CCCCCC3)C2CC2)o1 (stereo not drawn) [Example 480, 3-(α-Cyclopropyl(5-(N-carbo-t-butoxy)aminomethyl)furfur-2-yl)-4-hydroxy-5,6,7,8,9,10-hexahydrocycloocata[b]pyran-2-one] |  | 19.2% | 45.5% | 78.2% |  |
| O=c1oc2c(c(O)c1C(c1ccccc1)c1ccccc1)CCCCCC2 [Example 481, 3-(Diphenylmethyl)-5,6,7,8,9,10-hexahydro-4-hydroxy-2H-cycloocta[b]pyran-2-one] |  |  |  |  | inhibition at 0.37 µM ([2]; read-out: HIV-1 Protease % Inhib, dose 0.370 uM): 118%; inhibition at 1.1 µM ([2]; read-out: HIV-1 Protease % Inhib, dose 1.100 uM): 51.2%; inhibition at 3.3 µM ([2]; read-out: HIV-1 Protease % Inhib, dose 3.300 uM): 85.3%; inhibition at 10 µM ([2]; read-out: HIV-1 Protease % Inhib, dose 10.000 uM): 98%; inhibition at 30 µM ([2]; read-out: HIV-1 Protease % Inhib, dose 30.000 uM): 107% |
| O=c1oc2c(c(O)c1C(Cc1ccccc1)Cc1ccccc1)CCCCC2 [Example 482, 3-(1,3-Diphenyl-2-propyl)-5,6,7,8,9-pentahydro-4-hydroxy-2H-cyclohepta[b]pyran-2-one] |  | 20% | 63.2% | 92.6% |  |
| Nc1cc(N)cc(C(c2c(O)c3c(oc2=O)CCCCCC3)C2CC2)c1 (stereo not shown) [Example 484, 3-[Cyclopropyl-(3,5-diamino-phenyl)-methyl]-4-hydroxy-5,6,7,8,9,10-hexahydro-cycloocta[b]pyran-2-one] |  | 17.7% | 37.2% | 51.6% |  |
| O=c1oc2c(c(O)c1C(c1cc(NS(=O)(=O)c3cccc4cccnc34)cc(NS(=O)(=O)c3cccc4cccnc34)c1)C1CC1)CCCCCC2 (stereo not shown) [Example 485, N-[3-[Cyclopropyl-(4-hydroxy-2-oxo-5,6,7,8,9,10-hexahydro-2H-cycloocta[b]pyran-3-yl)-methyl]-5-8-quinolinesulfonylamino-phenyl]-8-quinolinesulfonamide] |  |  | 13.1% | 54.2% |  |
